The text below walks through data of US5519034A, “Tetraisoquinoline compounds which have useful pharmaceutical utility” (The Boots Company PLC, priority 1991, dated 1996).

In experiment [1] the target is T1, D1 dopamine receptors (Rattus norvegicus, UniProt P18901).
T1 construct: Striatal samples from the brains of male Charles River CD rats; from tissue; host or cells: striatum of male Charles River CD rats (washed membrane pellet)
The experiment in a line: D1 dopamine receptor binding: inhibition of tritiated SCH 23390 binding, rat striatal samples. Further details: species or system rat (male Charles River CD rats). As to conditions: rat striatum, tritiated SCH 23390, pH 7.4, 37° C., 30 minutes. In short, it runs like this:
(§1)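 Rat striatal membranes in Tris-HCl with NaCl, KCl, CaCl2, MgCl2. Filtration, scintillation counting; Ki from displacement IC50 via ligand KD, some D2 Ki estimated from single concentrations.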

The target in experiment [2] is T2, D2 dopamine receptors (Rattus norvegicus, UniProt P61169).
T2 construct: Striatal samples from the brains of male Charles River CD rats; from tissue; host or cells: striatum of male Charles River CD rats (washed membrane pellet)
In words: D2 dopamine receptor binding: inhibition of tritiated (S)-sulpiride binding, rat striatal samples. Further details: species or system rat (male Charles River CD rats). Particulars: for pKi: rat striatum, tritiated (S)-sulpiride; for Ki for D2 / Ki for D1: ratio to two significant figures. Summed up:
as §1

Setting [3] is: pH 7.7, 4° C., 40 minutes, > = from highest concentration which displaced ≤50% of the ligand, read-out: Ki for D2 binding.

pKi: −log10 of the molar value. Read-outs that look alike come from different tables or passages of the source. A value given as a limit tells only on which side of the number the result lay.

Broadly, the pKi is the negative decadic logarithm of the Ki, by convention in mol/L.

T2 sequence (P61169 whole entry): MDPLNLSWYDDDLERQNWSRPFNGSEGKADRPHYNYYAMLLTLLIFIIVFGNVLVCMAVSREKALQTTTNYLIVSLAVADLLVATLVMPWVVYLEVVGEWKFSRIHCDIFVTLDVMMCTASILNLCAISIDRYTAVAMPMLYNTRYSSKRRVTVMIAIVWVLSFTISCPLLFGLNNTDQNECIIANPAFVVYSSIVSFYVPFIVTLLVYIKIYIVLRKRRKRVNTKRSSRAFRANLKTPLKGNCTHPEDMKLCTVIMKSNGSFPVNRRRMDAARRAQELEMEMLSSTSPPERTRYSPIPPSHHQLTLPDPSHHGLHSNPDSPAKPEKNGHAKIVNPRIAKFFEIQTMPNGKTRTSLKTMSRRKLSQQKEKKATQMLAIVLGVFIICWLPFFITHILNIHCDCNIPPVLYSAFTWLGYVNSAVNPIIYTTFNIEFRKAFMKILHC
T1 sequence (P18901 whole entry): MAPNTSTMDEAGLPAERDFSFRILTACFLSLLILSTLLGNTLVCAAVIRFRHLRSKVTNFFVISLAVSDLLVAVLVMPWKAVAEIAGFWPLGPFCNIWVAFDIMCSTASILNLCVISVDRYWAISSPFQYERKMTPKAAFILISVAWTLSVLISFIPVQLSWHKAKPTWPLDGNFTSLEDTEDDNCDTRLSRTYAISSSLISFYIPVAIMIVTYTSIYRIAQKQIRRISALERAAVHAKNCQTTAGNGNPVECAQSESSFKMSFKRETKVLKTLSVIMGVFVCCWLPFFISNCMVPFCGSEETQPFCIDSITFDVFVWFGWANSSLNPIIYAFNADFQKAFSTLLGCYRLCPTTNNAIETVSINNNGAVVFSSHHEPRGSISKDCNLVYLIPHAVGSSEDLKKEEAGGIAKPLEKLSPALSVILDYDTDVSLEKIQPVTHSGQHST

With `COc1cc2c(cc1O)C(C1(c3ccccc3Cl)CCC1)N(C)CC2` (centres unmarked) [Example 69, 1-[1-(2-chlorophenyl)cyclobutyl]-7-hydroxy-6-methoxy-2-methyl-1,2,3,4-tetrahydroisoquinoline], the pKi in experiment [1] was 8.68; in experiment [2] (setting [3]), 5.24. In addition, the “Ki for D2 / Ki for D1” value in experiment [2] is on record as 2800.

Turning to `COc1cc2c(cc1O)C(C1(c3ccccc3Cl)CC(C)(C)C1)N(C)CC2` (centres unmarked) [Example 70, 7-hydroxy-6-methoxy-2-methyl-1-[1-(2-chlorophenyl)-3,3-dimethylcyclobutyl]-1,2,3,4-tetrahydroisoquinoline], the pKi in experiment [1] is 7.68; in experiment [2] (setting [3]), 4.46. Moreover, the “Ki for D2 / Ki for D1” value in experiment [2] was 1700.

Regarding `CSc1ccccc1C1(C2c3cc(O)c(O)cc3CCN2C)CCC1` (centres unmarked) [Example 71, 6,7-dihydroxy-2-methyl-1-[1-(2-methylthiophenyl)cyclobutyl]-1,2,3,4-tetrahydroisoquinoline], the pKi in experiment [1] is 8.82; in experiment [2] (setting [3]) it was 5.74. The “Ki for D2 / Ki for D1” value in experiment [2] stood at 1200.

On to `COc1cc2c(cc1O)C(C1(c3ccc(OC(F)(F)F)cc3)CCC1)N(C)CC2` (centres unmarked) [Example 72, 7-hydroxy-6-methoxy-2-methyl-1-[1-(4-trifluoromethoxyphenyl)cyclobutyl]-1,2,3,4-tetrahydroisoquinoline], for which the results for the negative-log Ki (pKi) in experiment [1] and in experiment [2] (setting [3]) were 7.33 and 5.02, respectively. Also, the “Ki for D2 / Ki for D1” value in experiment [2] came out at 200.

On to `COc1cc2c(cc1O)C(C1(c3ccccc3OC)CC1)N(C)CC2` (centres unmarked) [Example 73, 7-hydroxy-6-methoxy-1-[1-(2-methoxyphenyl)cyclopropyl]-2-methyl-1,2,3,4-tetrahydroisoquinoline], for which the pKi is 9.05 in experiment [1] and 5.30 in experiment [2] (setting [3]). In addition, in experiment [2], the “Ki for D2 / Ki for D1” value is recorded as 5500.

Regarding `COc1cc2c(cc1O)C(C1(c3ccccc3Cl)CC1)N(C)CC2` (centres unmarked) [Example 74, 1-[1-(2-chlorophenyl)cyclopropyl]-7-hydroxy-6-methoxy-2-methyl-1,2,3,4-tetrahydroisoquinoline], the values for the pKi in experiment [1] and in experiment [2] (setting [3]) were 8.82 and 5.96, respectively. Further, the “Ki for D2 / Ki for D1” value in experiment [2] worked out at 730.

`COCCN1CCc2cc(OC)c(O)cc2C1C1(c2ccccc2Cl)CC1` (centres unmarked) [Example 75, 1-[1-(2-chlorophenyl)cyclopropyl]-7-hydroxy-6-methoxy-2-(2-methoxyethyl)-1,2,3,4-tetrahydroisoquinoline]: the pKi in experiment [1] was 6.82; in experiment [2] (setting [3]), below 5.30. For the same molecule, in experiment [2], the “Ki for D2 / Ki for D1” value is given as above 33.

As for `COc1cc2c(cc1O)C(C1(c3ccccc3Cl)CC1)N(CCO)CC2` (centres unmarked) [Example 76, 1-[1-(2-chlorophenyl)cyclopropyl]-7-hydroxy-2-(2-hydroxyethyl)-6-methoxy-1,2,3,4-tetrahydroisoquinoline], the results for the pKi in experiment [1] and in experiment [2] (setting [3]) were 7.22 and below 5.30, respectively. Also, in experiment [2], the “Ki for D2 / Ki for D1” value is above 83.

In the case of `CN1CCc2cc(O)c(O)cc2C1C1(c2ccc(-c3ccccc3)cc2)CCC1` (centres unmarked) [Example 78, 6,7-dihydroxy-2-methyl-1-[1-(4-biphenylyl)cyclobutyl]-1,2,3,4-tetrahydroisoquinoline], the negative-log Ki (pKi) in experiment [1] was 7.03; in experiment [2] (setting [3]) it was 6.26. Also, the “Ki for D2 / Ki for D1” value in experiment [2] is 5.9.

As to `Cc1cc2c(cc1O)C(C1(c3ccccc3Cl)CC1)N(C)CC2` (centres unmarked) [Example 79, 1-[1-(2-chlorophenyl)cyclopropyl]-7-hydroxy-2,6-dimethyl-1,2,3,4-tetrahydroisoquinoline], the figures for the pKi in experiment [1] and in experiment [2] (setting [3]) were 8.92 and 6.03, respectively. For the same molecule, the “Ki for D2 / Ki for D1” value in experiment [2] amounted to 780.

As to `CN1CCc2cc(F)c(O)cc2C1C1(c2ccc(Cl)cc2Cl)CC1` (centres unmarked) [Example 81, 1-[1-(2,4-dichlorophenyl)cyclopropyl]-6-fluoro-7-hydroxy-2-methyl-1,2,3,4-tetrahydroisoquinoline], the results for the pKi in experiment [1] and in experiment [2] (setting [3]) were 8.72 and 6.48, respectively. In addition, the “Ki for D2 / Ki for D1” value in experiment [2] worked out at 170.

For `COc1cc2c(cc1O)C(C1(c3cccc4c3OCC4)CC1)N(C)CC2` (centres unmarked) [Example 82, 1-[1-(2,3-dihydrobenzo[b]furan-7-yl)cyclopropyl]-7-hydroxy-6-methoxy-2-methyl-1,2,3,4-tetrahydroisoquinoline], the pKi was 8.74 in experiment [1] and 5.31 in experiment [2] (setting [3]). Also, the “Ki for D2 / Ki for D1” value in experiment [2] came to 2700.

In the case of `CN1CCc2cc(O)c(O)cc2C1C1(c2ccccc2C#N)CCC1` (centres unmarked) [Example 83, 1-[1-(2-cyanophenyl)cyclobutyl]-6,7-dihydroxy-2-methyl-1,2,3,4-tetrahydroisoquinoline], the negative logarithm of the Ki (pKi) in experiment [1] is 7.68; in experiment [2] (estimated from single concentration data by Langmuir adsorption isotherm equation, read-out: Ki for D2 binding (marked E)), 5.18.

With `COc1cc2c(cc1O)C(C1(c3ccccc3Cl)CCCC1)N(C)CC2` (centres unmarked) [Example 84, 1-[1-(2-chlorophenyl)cyclopentyl]-7-hydroxy-6-methoxy-2-methyl-1,2,3,4-tetrahydroisoquinoline], the negative-log Ki (pKi) in experiment [1] is 7.92; in experiment [2] (setting [3]), 5.29. Besides, the “Ki for D2 / Ki for D1” value in experiment [2] is 430.
